# Source: US20260108546A1 (ELI LILLY AND COMPANY, priority 2024, published 2026)
# Molecular target: T1, hGIP-R (Homo sapiens, UniProt P48546)
# T1 construct: expressed in transfected cells; host or cells: HEK-293 clonal cell lines
# T1 sequence (P48546 22-466): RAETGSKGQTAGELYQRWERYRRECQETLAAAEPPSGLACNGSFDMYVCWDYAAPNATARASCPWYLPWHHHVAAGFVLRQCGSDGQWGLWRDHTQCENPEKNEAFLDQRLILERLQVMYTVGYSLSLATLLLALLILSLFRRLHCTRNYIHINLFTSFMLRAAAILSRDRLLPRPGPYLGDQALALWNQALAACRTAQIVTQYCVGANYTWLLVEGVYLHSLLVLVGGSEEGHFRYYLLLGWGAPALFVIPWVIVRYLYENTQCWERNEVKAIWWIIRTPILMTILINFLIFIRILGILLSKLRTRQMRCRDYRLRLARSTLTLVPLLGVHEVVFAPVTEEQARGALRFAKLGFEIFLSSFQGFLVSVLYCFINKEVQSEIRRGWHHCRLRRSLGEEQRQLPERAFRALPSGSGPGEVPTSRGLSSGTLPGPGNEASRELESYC
# Experiment: Functional hGIP-R Assay (cAMP formation, HTRF)
# Assay type: cell-based
# Conditions: for Emax: cAMP efficacy, percent of maximal response to GIP(1-42)OH, 37° C., 0.1% bovine casein, arithmetic mean ± SEM; for EC50: cAMP potency, HEK-293 cells expressing hGIP-R, incubated at 37° C. in the presence of 0.1% bovine casein, geometric mean, read-out: Human GIP-R EC50, nM (SEM, n)
# Summary of the method: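 Relative EC50 and Emax came from four-parameter logistic fits of cAMP as a percent of the human GIP (1-42) OH maximal response. The cAMP was measured by competitive HTRF after 30 min, 37 °C compound exposure of hGIP-R HEK-293 clones in IBMX (250 μM)-containing medium.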
Compound,Emax [%],EC50 [nM]
"[2H]C([2H])([2H])N(C(=O)[C@H]1C[C@@H]1c1cnc(-c2cnc3nn(C)cc3c2)nc1C(F)(F)F)[C@H](Cc1cnn(C(F)F)c1)C(=O)NC(C)(C)Cn1nc(C(F)(F)F)cc1-c1cc(F)c(=O)n(C)c1 [Example 139, (1S,2S)-N-((R)-3-(1-(Difluoromethyl)-1H-pyrazol-4-yl)-1-((1-(5-(5-fluoro-1-methyl-6-oxo-1,6-dihydropyridin-3-yl)-3-(trifluoromethyl)-1H-pyrazol-1-yl)-2-methylpropan-2-yl)amino)-1-oxopropan-2-yl)-N-(methyl-d3)-2-(2-(2-methyl-2H-pyrazolo[3,4-b]pyridin-5-yl)-4-(trifluoromethyl)pyrimidin-5-yl)cyclopropane-1-carboxamide]",99.7 ± 3.49,24.8
"[2H]C([2H])([2H])n1cc(-c2cc(C(F)(F)F)nn2CC(C)(C)NC(=O)[C@@H](Cc2cnn(C(F)F)c2)N2CC[C@@]3(C[C@@H]3c3ccc(-c4cnc5nn(C)cc5c4)cc3)C2=O)cc(F)c1=O [Example 141, (R)-3-(1-(Difluoromethyl)-1H-pyrazol-4-yl)-N-(1-(5-(5-fluoro-1-(methyl-d3)-6-oxo-1,6-dihydropyridin-3-yl)-3-(trifluoromethyl)-1H-pyrazol-1-yl)-2-methylpropan-2-yl)-2-((1R,3R)-1-(4-(2-methyl-2H-pyrazolo[3,4-b]pyridin-5-yl)phenyl)-4-oxo-5-azaspiro[2.4]heptan-5-yl)propanamide]",60.9 ± 5.88,26.2
"Cn1cc2cc(-c3ccc([C@H]4C[C@@]45CCN([C@H](Cc4cnn(C(F)F)c4)C(=O)NC(C)(C)Cn4nc(C(F)(F)F)cc4-c4cnc(N6CCC(=O)CC6)nc4)C5=O)cc3)cnc2n1 [Example 142, (R)-3-(1-(Difluoro-methyl)-1H-pyrazol-4-yl)-N-(2-methyl-1-(5-(2-(4-oxopiperidin-1-yl)pyrimidin-5-yl)-3-(trifluoromethyl)-1H-pyrazol-1-yl)propan-2-yl)-2-((1R,3R)-1-(4-(2-methyl-2H-pyrazolo[3,4-b]pyridin-5-yl)phenyl)-4-oxo-5-azaspiro[2.4]heptan-5-yl)propanamide]",49.9 ± 1.38,102
"Cn1cc2cc(-c3ccc([C@H]4C[C@@]45CCN([C@H](Cc4cnn(C(F)F)c4)C(=O)NC(C)(C)Cn4nc(C(F)(F)F)cc4-c4ccc(C#N)nc4)C5=O)cc3)cnc2n1 [Example 143, (R)-N-(1-(5-(6-Cyanopyridin-3-yl)-3-(trifluoro-methyl)-1H-pyrazol-1-yl)-2-methylpropan-2-yl)-3-(1-(difluoro-methyl)-1H-pyrazol-4-yl)-2-((1R,3R)-1-(4-(2-methyl-2H-pyrazolo[3,4-b]pyridin-5-yl)phenyl)-4-oxo-5-azaspiro[2.4]heptan-5-yl)propanamide]",72.8 ± 3.32,57.7
"Cc1nc(-c2cnc3nc(C4CC4)cn3c2)ccc1[C@H]1C[C@@]12CCN([C@H](Cc1cnn(C(F)F)c1)C(=O)NC(C)(C)Cn1nc(C(F)(F)F)cc1-c1ccn(C3CC3)c(=O)c1)C2=O [Example 145, (R)—N-(1-(5-(1-Cyclopropyl-2-oxo-1,2-dihydropyridin-4-yl)-3-(trifluoromethyl)-1H-pyrazol-1-yl)-2-methylpropan-2-yl)-2-((1R,3R)-1-(6-(2-cyclopropylimidazo[1,2-a]pyrimidin-6-yl)-2-methylpyridin-3-yl)-4-oxo-5-azaspiro[2.4]heptan-5-yl)-3-(1-(difluoromethyl)-1H-pyrazol-4-yl)propanamide]",96.6 ± 2.37,0.727
"Cc1ncc(-c2cc(C(F)(F)F)nn2CC(C)(C)NC(=O)[C@@H](Cc2cnn(C(F)F)c2)NC(=O)[C@H]2C[C@@H]2c2ccc(-c3cnc4nn(C)cc4c3)nc2C(F)(F)F)cn1 [Example 147, (1S,2S)-N—((R)-3-(1-(Difluoromethyl)-1H-pyrazol-4-yl)-1-((2-methyl-1-(5-(2-methylpyrimidin-5-yl)-3-(trifluoromethyl)-1H-pyrazol-1-yl)propan-2-yl)amino)-1-oxopropan-2-yl)-2-(6-(2-methyl-2H-pyrazolo[3,4-b]pyridin-5-yl)-2-(trifluoromethyl)pyridin-3-yl)cyclopropane-1-carboxamide]",86.1 ± 9,17.2
"[2H]C([2H])([2H])n1cc(C[C@H](C(=O)NC(C)(C)Cn2nc(C(F)(F)F)cc2-c2cnc(C)nc2)N2CC[C@@]3(C[C@@H]3c3ccc(-c4cnc5nc(C)cn5c4)cc3Cl)C2=O)cn1 [Example 152, (R)-2-((1S,3R)-1-(2-Chloro-4-(2-methylimidazo[1,2-a]pyrimidin-6-yl)phenyl)-4-oxo-5-azaspiro[2.4]heptan-5-yl)-N-(2-methyl-1-(5-(2-methylpyrimidin-5-yl)-3-(trifluoromethyl)-1H-pyrazol-1-yl)propan-2-yl)-3-(1-(methyl-d3)-1H-pyrazol-4-yl)propanamide]",87.2 ± 1.03,1.73
"Cn1cc(-c2ccc([C@H]3C[C@@]34CCN([C@H](Cc3cnn(C(F)F)c3)C(=O)NC(C)(C)Cn3nc(C(F)(F)F)cc3-c3cn[nH]n3)C4=O)c(Cl)c2)cnc1=O [Example 154, (R)—N-(1-(5-(2H-1,2,3-Triazol-4-yl)-3-(trifluoromethyl)-1H-pyrazol-1-yl)-2-methylpropan-2-yl)-2-((1S,3R)-1-(2-chloro-4-(1-methyl-2-oxo-1,2-dihydropyrimidin-5-yl)phenyl)-4-oxo-5-azaspiro[2.4]heptan-5-yl)-3-(1-(difluoromethyl)-1H-pyrazol-4-yl)propanamide]",74.2 ± 2.83,5.24

# Now from value to compound:
Emax [%],EC50 [nM],Compound
63.3 ± 2.24,0.755,"Cc1cn2cc(-c3ccc([C@H]4C[C@@]45CCN([C@H](Cc4cnn(C(F)F)c4)C(=O)NC(C)(C)Cn4nc(C(F)(F)F)cc4-c4cc(F)c(=O)n(C)c4)C5=O)c(C)c3)cnc2n1 [Example 144, (R)-3-(1-(Difluoromethyl)-1H-pyrazol-4-yl)-N-(1-(5-(5-fluoro-1-methyl-6-oxo-1,6-dihydropyridin-3-yl)-3-(trifluoromethyl)-1H-pyrazol-1-yl)-2-methylpropan-2-yl)-2-((1R,3R)-1-(2-methyl-4-(2-methylimidazo[1,2-a]pyrimidin-6-yl)phenyl)-4-oxo-5-azaspiro[2.4]heptan-5-yl)propanamide]"
74.4 ± 2.94,1.13,"Cc1cn2cc(-c3ccc([C@H]4C[C@@]45CCN([C@H](Cc4cnn(C(F)F)c4)C(=O)NC(C)(C)Cn4nc(C(F)(F)F)cc4-c4ccc(=O)[nH]n4)C5=O)c(Cl)c3)cnc2n1 [Example 148, (R)-2-((1S,3R)-1-(2-Chloro-4-(2-methylimidazo[1,2-a]pyrimidin-6-yl)phenyl)-4-oxo-5-azaspiro[2.4]heptan-5-yl)-3-(1-(difluoromethyl)-1H-pyrazol-4-yl)-N-(2-methyl-1-(5-(6-oxo-1,6-dihydropyridazin-3-yl)-3-(trifluoromethyl)-1H-pyrazol-1-yl)propan-2-yl)propanamide]"
73.2 ± 2.43,5.57,"Cc1cn2cc(-c3ccc([C@H]4C[C@@]45CCN([C@H](Cc4cnn(C(F)F)c4)C(=O)NC(C)(C)Cn4nc(C(F)(F)F)cc4-c4ccc(=O)[nH]n4)C5=O)c(F)c3)cnc2n1 [Example 149, (R)-3-(1-(Difluoromethyl)-1H-pyrazol-4-yl)-2-((1S,3R)-1-(2-fluoro-4-(2-methylimidazo[1,2-a]pyrimidin-6-yl)phenyl)-4-oxo-5-azaspiro[2.4]heptan-5-yl)-N-(2-methyl-1-(5-(6-oxo-1,6-dihydropyridazin-3-yl)-3-(trifluoromethyl)-1H-pyrazol-1-yl)propan-2-yl)propanamide]"
89.5 ± 6.21,2.06,"Cc1cn2cc(-c3ccc([C@H]4C[C@@]45CCN([C@H](Cc4cnn(C(F)F)c4)C(=O)NC(C)(C)Cn4nc(C(F)(F)F)cc4-c4ccc(=O)n(COP(=O)(O)O)n4)C5=O)c(Cl)c3)cnc2n1 [Example 150, (3-(1-(2-((R)-2-((1S,3R)-1-(2-Chloro-4-(2-methylimidazo[1,2-a]pyrimidin-6-yl)phenyl)-4-oxo-5-azaspiro[2.4]heptan-5-yl)-3-(1-(difluoromethyl)-1H-pyrazol-4-yl)propanamido)-2-methylpropyl)-3-(trifluoromethyl)-1H-pyrazol-5-yl)-6-oxopyridazin-1 (6H)-yl)methyl dihydrogen phosphate]"
106 ± 2.17,16.9,"Cc1cn2cc(-c3ccc([C@H]4C[C@@]45CCN([C@H](Cc4cnn(C(F)F)c4)C(=O)NC(C)(C)Cn4nc(C(F)(F)F)cc4-c4ccc(=O)n(COP(=O)(O)O)n4)C5=O)c(F)c3)cnc2n1 [Example 151, (3-(1-(2-((R)-3-(1-(Difluoromethyl)-1H-pyrazol-4-yl)-2-((1S,3R)-1-(2-fluoro-4-(2-methylimidazo[1,2-a]pyrimidin-6-yl)phenyl)-4-oxo-5-azaspiro[2.4]heptan-5-yl)propanamido)-2-methylpropyl)-3-(trifluoromethyl)-1H-pyrazol-5-yl)-6-oxopyridazin-1 (6H)-yl)methyl dihydrogen phosphate]"
